Data: ChEMBL document CHEMBL1800064, “Biaryl ethers as potent allosteric inhibitors of reverse transcriptase and its key mutant viruses: aryl substituted pyrazole as a surrogate for the pyrazolopyridine motif” (Bioorg Med Chem Lett, 2010)

How the values were obtained:
[1] = test system: Human immunodeficiency virus 1; test: Antiviral activity against HIV1 isolate NL4-3 harboring reverse transcriptase G190A mutant assessed as inhibition of viral replication by phenoscreen assay in presence of 40% normal human serum; format: functional, organism-based; settings: Human immunodeficiency virus 1, isolate NL4-3
[2] = test system: Human immunodeficiency virus 1; test: Antiviral activity against HIV1 isolate NL4-3 harboring reverse transcriptase G190S mutant assessed as inhibition of viral replication by phenoscreen assay in presence of 40% normal human serum; format: functional, organism-based; settings: Human immunodeficiency virus 1, isolate NL4-3
[3] = test system: Human immunodeficiency virus 1; test: Antiviral activity against HIV1 isolate NL4-3 harboring reverse transcriptase K103N/V179E double mutant assessed as inhibition of viral replication by phenoscreen assay in presence of 40% normal human serum; format: functional, organism-based; settings: Human immunodeficiency virus 1, isolate NL4-3
[4] = test system: Human immunodeficiency virus 1; test: Antiviral activity against HIV1 isolate NL4-3 harboring reverse transcriptase K103N/Y181C double mutant assessed as inhibition of viral replication by phenoscreen assay in presence of 40% normal human serum; format: functional, organism-based; settings: Human immunodeficiency virus 1, isolate NL4-3
[5] = test system: Human immunodeficiency virus 1; test: Antiviral activity against HIV1 isolate NL4-3 harboring reverse transcriptase K103N/G190A double mutant assessed as inhibition of viral replication by phenoscreen assay in presence of 40% normal human serum; format: functional, organism-based; settings: Human immunodeficiency virus 1, isolate NL4-3
[6] = test system: Human immunodeficiency virus 1; test: Antiviral activity against HIV1 isolate NL4-3 harboring reverse transcriptase Y181C/G190A double mutant assessed as inhibition of viral replication by phenoscreen assay in presence of 40% normal human serum; format: functional, organism-based; settings: Human immunodeficiency virus 1, isolate NL4-3
[7] = test system: Human immunodeficiency virus 1; test: Antiviral activity against HIV1 isolate NL4-3 harboring reverse transcriptase K103N/P225H double mutant assessed as inhibition of viral replication by phenoscreen assay in presence of 40% normal human serum; format: functional, organism-based; settings: Human immunodeficiency virus 1, isolate NL4-3
[8] = test system: Human immunodeficiency virus 1; test: Antiviral activity against HIV1 isolate NL4-3 harboring reverse transcriptase K101E/G190A double mutant assessed as inhibition of viral replication by phenoscreen assay in presence of 40% normal human serum; format: functional, organism-based; settings: Human immunodeficiency virus 1, isolate NL4-3
[9] = test system: Human immunodeficiency virus 1; test: Antiviral activity against HIV1 isolate NL4-3 harboring reverse transcriptase K101E/Y181C/G190A mutant assessed as inhibition of viral replication by phenoscreen assay in presence of 40% normal human serum; format: functional, organism-based; settings: Human immunodeficiency virus 1, isolate NL4-3
[10] = test system: Human immunodeficiency virus 1; test: Antiviral activity against HIV1 isolate NL4-3 harboring reverse transcriptase K103N/Y181C/G190A mutant assessed as inhibition of viral replication by phenoscreen assay in presence of 40% normal human serum; format: functional, organism-based; settings: Human immunodeficiency virus 1, isolate NL4-3
[11] = test system: Human immunodeficiency virus 1; test: Antiviral activity against HIV1 isolate NL4-3 harboring reverse transcriptase V106A/G190A/F227L mutant assessed as inhibition of viral replication by phenoscreen assay in presence of 40% normal human serum; format: functional, organism-based; settings: Human immunodeficiency virus 1, isolate NL4-3
[12] = test system: Human immunodeficiency virus 1; test: Ratio IC50 for HIV1 isolate NL4-3 harboring reverse transcriptase L100I mutant to IC50 for HIV1 isolate NL4-3 harboring wild type reverse transcriptase by phenoscreen assay in presence of 40% normal human serum; format: functional
[13] = test system: Human immunodeficiency virus 1; test: Ratio IC50 for HIV1 isolate NL4-3 harboring reverse transcriptase K103N mutant to IC50 for HIV1 isolate NL4-3 harboring wild type reverse transcriptase by phenoscreen assay in presence of 40% normal human serum; format: functional
[14] = test system: Human immunodeficiency virus 1; test: Ratio IC50 for HIV1 isolate NL4-3 harboring reverse transcriptase Y181C mutant to IC50 for HIV1 isolate NL4-3 harboring wild type reverse transcriptase by phenoscreen assay in presence of 40% normal human serum; format: functional
[15] = test system: Human immunodeficiency virus 1; test: Ratio IC50 for HIV1 isolate NL4-3 harboring reverse transcriptase Y188L mutant to IC50 for HIV1 isolate NL4-3 harboring wild type reverse transcriptase by phenoscreen assay in presence of 40% normal human serum; format: functional
[16] = test system: Human immunodeficiency virus 1; test: Ratio IC50 for HIV1 isolate NL4-3 harboring reverse transcriptase G190A mutant to IC50 for HIV1 isolate NL4-3 harboring wild type reverse transcriptase by phenoscreen assay in presence of 40% normal human serum; format: functional
[17] = test system: Human immunodeficiency virus 1; test: Ratio IC50 for HIV1 isolate NL4-3 harboring reverse transcriptase G190S mutant to IC50 for HIV1 isolate NL4-3 harboring wild type reverse transcriptase by phenoscreen assay in presence of 40% normal human serum; format: functional
[18] = test system: Human immunodeficiency virus 1; test: Ratio IC50 for HIV1 isolate NL4-3 harboring reverse transcriptase K103N/V179E double mutant to IC50 for HIV1 isolate NL4-3 harboring wild type reverse transcriptase by phenoscreen assay in presence of 40% normal human serum; format: functional
[19] = test system: Human immunodeficiency virus 1; test: Ratio IC50 for HIV1 isolate NL4-3 harboring reverse transcriptase K103N/Y181C double mutant to IC50 for HIV1 isolate NL4-3 harboring wild type reverse transcriptase by phenoscreen assay in presence of 40% normal human serum; format: functional
[20] = test system: Human immunodeficiency virus 1; test: Ratio IC50 for HIV1 isolate NL4-3 harboring reverse transcriptase K103N/G190A double mutant to IC50 for wild type HIV1 isolate NL4-3 harboring reverse transcriptase by phenoscreen assay in presence of 40% normal human serum; format: functional
[21] = test system: Human immunodeficiency virus 1; test: Ratio IC50 for HIV1 isolate NL4-3 harboring reverse transcriptase Y181C/G190A double mutant to IC50 for HIV1 isolate NL4-3 harboring wild type reverse transcriptase by phenoscreen assay in presence of 40% normal human serum; format: functional
[22] = test system: Human immunodeficiency virus 1; test: Ratio IC50 for HIV1 isolate NL4-3 harboring reverse transcriptase K103N/P225H double mutant to IC50 for HIV1 isolate NL4-3 harboring wild type reverse transcriptase by phenoscreen assay in presence of 40% normal human serum; format: functional
[23] = test system: Human immunodeficiency virus 1; test: Ratio IC50 for HIV1 isolate NL4-3 harboring reverse transcriptase K101E/G190A double mutant to IC50 for HIV1 isolate NL4-3 harboring wild type reverse transcriptase by phenoscreen assay in presence of 40% normal human serum; format: functional
[24] = test system: Human immunodeficiency virus 1; test: Ratio IC50 for HIV1 isolate NL4-3 harboring reverse transcriptase K101E/Y181C/G190A mutant to IC50 for HIV1 isolate NL4-3 harboring wild type reverse transcriptase by phenoscreen assay in presence of 40% normal human serum; format: functional
[25] = test system: Human immunodeficiency virus 1; test: Ratio IC50 for HIV1 isolate NL4-3 harboring reverse transcriptase K103N/Y181C/G190A mutant to IC50 for HIV1 isolate NL4-3 harboring wild type reverse transcriptase by phenoscreen assay in presence of 40% normal human serum; format: functional
[26] = test system: Human immunodeficiency virus 1; test: Ratio IC50 for HIV1 isolate NL4-3 harboring reverse transcriptase V106A/G190A/F227L mutant to IC50 for HIV1 isolate NL4-3 harboring wild type reverse transcriptase by phenoscreen assay in presence of 40% normal human serum; format: functional
[27] = test system: Human immunodeficiency virus 1; test: Antiviral activity against HIV1 R8 harboring wild type reverse transcriptase infected in human MT4 cells assessed as inhibition of viral spread in presence of 10% fetal bovine serum; format: functional; settings: Human immunodeficiency virus 1, R8, MT4; read-out: CIC95
[28] = biological target: Human immunodeficiency virus type 1 reverse transcriptase (Human immunodeficiency virus 1, UniProt Q72547); test: Inhibition of wild type HIV1 reverse transcriptase by SPA assay
[29] = biological target: Human immunodeficiency virus type 1 reverse transcriptase (Human immunodeficiency virus 1, UniProt Q72547, K103N); test: Inhibition of HIV1 reverse transcriptase K103N mutant by SPA assay
[30] = biological target: Human immunodeficiency virus type 1 reverse transcriptase (Human immunodeficiency virus 1, UniProt Q72547, Y181C); test: Inhibition of HIV1 reverse transcriptase Y181C mutant by SPA assay
[31] = test system: Human immunodeficiency virus 1; test: Antiviral activity against HIV1 isolate NL4-3 harboring wild type reverse transcriptase assessed as inhibition of viral replication by phenoscreen assay in presence of 40% normal human serum; format: functional, organism-based; settings: Human immunodeficiency virus 1, isolate NL4-3
[32] = test system: Human immunodeficiency virus 1; test: Antiviral activity against HIV1 R8 harboring reverse transcriptase infected in human MT4 cells assessed as inhibition of viral spread in presence of 50% normal human serum; format: functional; settings: Human immunodeficiency virus 1, R8, MT4; read-out: CIC95
[33] = test system: Human immunodeficiency virus 1; test: Antiviral activity against HIV1 R8 harboring reverse transcriptase K103N mutant infected in human MT4 cells assessed as inhibition of viral spread in presence of 10% fetal bovine serum; format: functional; settings: Human immunodeficiency virus 1, R8, MT4; read-out: CIC95
[34] = test system: Human immunodeficiency virus 1; test: Antiviral activity against HIV1 R8 harboring reverse transcriptase Y181C mutant infected in human MT4 cells assessed as inhibition of viral spread in presence of 10% fetal bovine serum; format: functional; settings: Human immunodeficiency virus 1, R8, MT4; read-out: CIC95
[35] = test system: Human immunodeficiency virus 1; test: Antiviral activity against HIV1 isolate NL4-3 harboring reverse transcriptase L100I mutant assessed as inhibition of viral replication by phenoscreen assay in presence of 40% normal human serum; format: functional, organism-based; settings: Human immunodeficiency virus 1, isolate NL4-3
[36] = test system: Human immunodeficiency virus 1; test: Antiviral activity against HIV1 isolate NL4-3 harboring reverse transcriptase K103N mutant assessed as inhibition of viral replication by phenoscreen assay in presence of 40% normal human serum; format: functional, organism-based; settings: Human immunodeficiency virus 1, isolate NL4-3
[37] = test system: Human immunodeficiency virus 1; test: Antiviral activity against HIV1 isolate NL4-3 harboring reverse transcriptase Y181C mutant assessed as inhibition of viral replication by phenoscreen assay in presence of 40% normal human serum; format: functional, organism-based; settings: Human immunodeficiency virus 1, isolate NL4-3
[38] = test system: Human immunodeficiency virus 1; test: Antiviral activity against HIV1 isolate NL4-3 harboring reverse transcriptase Y188L mutant assessed as inhibition of viral replication by phenoscreen assay in presence of 40% normal human serum; format: functional, organism-based; settings: Human immunodeficiency virus 1, isolate NL4-3

Compound `N#Cc1cc(Cl)cc(Oc2cc(OCc3cc(-c4ccncc4)[nH]n3)ccc2Cl)c1` has an IC50 [1] of 0.0223 µM, an IC50 [2] of 0.161 µM and an IC50 [3] of 0.0902 µM. For the same compound, the IC50 [4] was over 1 µM, the IC50 [5] was 0.12 µM and the IC50 [6] was 0.131 µM. The IC50 [7] was 0.0324 µM, the IC50 [8] was 0.118 µM and the IC50 [9] was 0.332 µM. For the same compound, the IC50 [10] was over 1 µM, the IC50 [11] was over 1 µM and the “Ratio IC50” value [12] was 4.9. For the same compound, the “Ratio IC50” value [13] was 4.4, the “Ratio IC50” value [14] was 8 and the “Ratio IC50” value [15] was over 222. For the same compound, the “Ratio IC50” value [16] was 5, the “Ratio IC50” value [17] was 35.7 and the “Ratio IC50” value [18] was 20. For the same compound, the “Ratio IC50” value [19] was over 222, the “Ratio IC50” value [20] was 26.6 and the “Ratio IC50” value [21] was 29.1. For the same compound, the “Ratio IC50” value [22] was 7.2, the “Ratio IC50” value [23] was 26.2 and the “Ratio IC50” value [24] was 73.7. For the same compound, the “Ratio IC50” value [25] was over 222, the “Ratio IC50” value [26] was over 222 and the IC95 [27] was 0.025 µM. It also gave a Ki [28] of 0.0007 µM, a Ki [29] of 0.0042 µM and a Ki [30] of 0.0046 µM. The IC50 [31] was 0.0045 µM, the IC95 [32] was 0.102 µM and the IC95 [33] was 0.102 µM. It also gave an IC95 [34] of 0.278 µM, an IC50 [35] of 0.0219 µM and an IC50 [36] of 0.0197 µM. For the same compound, the IC50 [37] was 0.0362 µM and the IC50 [38] was over 1 µM.
